Measurements taken from patent US20040186066A1, “Method of treatment with nelfinavir” (AGOURON PHARMACEUTICALS, INC., priority 2003, published 2004).
Marks after values point to notes of the source that are not given here.

Tests used:
[1] = Example 2: phase 1 crossover 3×3 study, fixed kilocalorie meal at 20% and 50% fat, single-dose pharmacokinetics of nelfinavir 250 mg tablets; format: in vivo, human (normal, healthy volunteers)
Description: A study was conducted as a phase 1, randomized, open-label, crossover 3×3 study, designed to evaluate the impact of a fixed kilocalorie meal at 20% and 50% fat content on single-dose pharmacokinetic parameters of the nelfinavir 250 mg tablet formulation in normal, healthy volunteers. Subjects were dosed with 1250 mg of nelfinavir 3 times at one-week intervals and 24-hour PK profiles were collected following each of the doses. Each subject was assigned three meals with different fat contents prior to dosing (fasting, 500kcal with 20% fat, 500 kcal with 50% fat) using a Latin square design. Twenty-four subjects entered the study and twenty-two subjects completed it. Each subject received the following treatment in random order on Days 1, 8 and 15: 5×250 mg nelfinavir tablets with fasting; 5×250 mg nelfinavir tablets, with a meal comprising 500Kcal/20% fat; and 5×250 mg nelfinavir tablets with a meal having 500 Kcal/50% fat. The moderate calorie/low fat meal consisted of 500 Kcal with 20% fat (11.3 grams of fat). The moderate calorie/high fat meal consisted of 500 Kcal with 50% fat (27.8 grams of fat). Subjects were administered nelfinavir 1250-mg (five 250-mg tablets) on the morning of the pharmacokinetic evaluations. The nelfinavir terminal half-life (t½) in plasma is typically 3.5 to 5 hours. […] Subjects participated on an outpatient basis; however, subjects were admitted to the in-patient facility the evening prior to each PK evaluation and remained in the in-patient facility for approximately 16 hours post-dosing. The subjects returned the next morning (8 hours later) for their last 24 hr. pharmacokinetic blood draw. All pharmacokinetic evaluations were performed in the in-patient facility. Blood samples were collected and analyzed for plasma concentrations of nelfinavir and M8. For the fasting evaluation, subjects were required to complete an overnight fast of at least 10 hours prior to dosing in the morning. For the fed PK evaluations, subjects were required to complete an overnight fast of at least 10 hours, prior to receiving the protocol-specific standardized breakfast meal. Subjects were given 30 minutes to complete their standardized breakfast meal. Dosing was performed in the morning, immediately following the subject's completion of the standardized breakfast meal and after the subject's predose PK specimen had been collected. Subjects could not ingest water 1 hour prior to or 1 hour after dosing. A standardized lunch was given at least 4 hours after the morning dose and a standardized dinner was given at least 10 hours after the morning dose. Actual sampling times were used for all data evaluation. Mean Cmax and AUC values were calculated as the antilogs of least-squares mean log-transformed values (analogous to geometric means). Ratios and confidence intervals for Cmax and AUC values are also based on log-transformed values. Mean values for all other pharmacokinetic parameters are least-squares means. Ratios and confidence intervals for these parameters are based on untransformed values. Blood samples, 5 mL each, were collected as in Example 1. The timing of each sample collection was as follows: Predose and at 0.5, 1, 2, 3, 4, 6, 8, 12, 16 and 24 hours postdose on Days 1, 8, and 15. All blood samples were kept at […] (using either wet ice or cryoblock) until centrifugation. Blood samples were centrifuged within 1 hour of collection, at 3000 rpm (approximately 2619×g) for 15 minutes, to separate the plasma. The plasma samples were split evenly into 2 aliquots and stored in appropriately labeled polypropylene transport tubes. Plasma was stored frozen at […] or lower until analysis. Pharmacokinetic parameter values were calculated from plasma nelfinavir and M8 concentration-time data using standard noncompartmental pharmacokinetic methods as in Example 1. Plasma concentrations of nelfinavir and M8 were measured by validated high-performance liquid chromatography (HPLC) methods. […]

[2] = with increasing food intake; cited from earlier work
[3] = Example 1: phase I crossover food-effect study, single-dose pharmacokinetics of nelfinavir 250 mg tablets (total kilocalories and fat); format: in vivo, human (normal healthy volunteers); settings: for bioavailability of M8 higher relative to fasting, based on AUC(0-∞): M8 after 1250 mg nelfinavir
Description: A phase I, randomized, open-label crossover study to evaluate the impact of total kilocalories and fat content on single-dose pharmacokinetic parameters of the nelfinavir 250 mg tablet formulation in normal healthy volunteers was performed. Healthy volunteers entered the study and received the following treatment in random order at least 1 week apart: 1) 5×250 mg nelfinavir tablets, fasted 2) 5×250 mg nelfinavir tablets (breakfast meal 1, 125 Kcal/20% fat=low cal/low fat) 3) 5×250 mg nelfinavir tablets (breakfast meal 2, 500 Kcal/20% fat=medium cal/low fat) 4) 5×250 mg nelfinavir tablets (breakfast meal 3, 1000 Kcal/50% fat=high cal/high fat). Plasma concentrations of nelfinavir and its active hydroxy-t-butylamide metabolite (M8) were measured by validated high performance liquid chromatography (HPLC) methods. Pharmacokinetic parameters were determined from plasma concentration-time data using standard methods. Nelfinavir was administered as five 250-mg tablets with 240 mL of water. All subjects received a standardized snack the evening they were admitted to the in-patient facility. For the fasting evaluation, subjects were required to complete an overnight fast of at least 10 hours prior to dosing in the morning. For the fed pharmacokinetic evaluations, subjects were required to complete an overnight fast of at least 10 hours, prior to receiving the protocol-specific standardized breakfast meal (that is, Meal 1, Meal 2, or Meal 3). Subjects were given 30 minutes to complete their standardized breakfast meal. Dosing was performed in the morning, immediately following the subject's completion of the standardized breakfast meal and after the subject's pre-dose pharmacokinetic specimen had been collected. Subjects could not ingest water 1 hour prior to or 1 hour after dosing. A standardized lunch was given at least 4 hours after the morning dose and a standardized dinner was given at least 10 hours after the morning dose. For pharmacokinetic sampling, blood samples, 5 mL each, were collected into heparinized vacuum tubes (green top tubes) via an indwelling catheter or direct venipuncture. The actual time of each collection was recorded on the source document. The timing of each sample collection was as follows: predose and at 0.5, 1, 2, 3, 4, 6, 8, and 12 hours postdose on Days 1, 8,15, and 22. Pharmacokinetic parameter values were calculated using WinNonlin Pro Version 2.1. Individual nelfinavir plasma concentrations were used to predict steady-state plasma concentrations during BID administration with meals of various Kcal content. WinNonlin Pro Version 3.2 noncompartmental superposition was used for this simulation. Predicted steady-state Cmax and Cmin values were compared.

[4] = M8 after 1250-mg nelfinavir oral dose, fasting (reference)
[5] = M8 after 1250-mg nelfinavir with high calorie/high fat/high protein meal
[6] = M8 after 1250-mg nelfinavir with low calorie/low fat/low protein meal
[7] = M8 after 1250-mg nelfinavir with moderate calorie/low fat/moderate protein meal
[8] = high calorie/high fat/high protein meal vs fasting
[9] = low calorie/low fat/low protein meal vs fasting
[10] = moderate calorie/low fat/moderate protein meal vs fasting

SMILES: Cc1c(O)cccc1C(=O)N[C@@H](CSc1ccccc1)[C@H](O)CN1C[C@H]2CCCC[C@H]2C[C@H]1C(=O)NC(C)(C)CO [M8]
- M8 AUC∞/Nelfinavir AUC∞(%) ([1]; 1250 mg nelfinavir single dose, fasting): 8.6%
- M8 AUC∞/Nelfinavir AUC∞(%) ([1]; Kcal/Fat % 500/20%): 8.7%
- M8 AUC∞/Nelfinavir AUC∞(%) ([1]; Kcal/Fat % 500/50%): 11.4%
- mean M8 AUC(0-∞) higher relative to fasting subjects ([1]; test meal containing 20% fat): 3 fold
- mean M8 AUC(0-∞) higher relative to fasting subjects ([1]; test meal containing 50% fat): 6.8 fold
- percentage of M8 relative to nelfinavir ([1]; remained the same with increasing fat intake): around 10%
- M8 concentrations relative to nelfinavir [2]: 15-20%
- M8 AUCinf/NFV AUCinf (%) ([3]; 1250 mg nelfinavir single oral dose, fasting): 26.5%
- bioavailability of M8 higher relative to fasting, based on AUC(0-∞) ([3]; high calorie meal (1000 Kcal)): 4.1 fold
- bioavailability of M8 higher relative to fasting, based on AUC(0-∞) ([3]; low calorie meal (125 Kcal)): 1.3 fold
- bioavailability of M8 higher relative to fasting, based on AUC(0-∞) ([3]; moderate calorie meal (500 Kcal)): 1.8 fold
- M8 AUC(0-tlqc), least-squares mean [3, 4]: 0.655^a μg · hr/mL
- M8 AUC(0-∞), least-squares mean [3, 4]: 2.81^c μg · hr/mL
- M8 t1/2, least-squares mean [3, 4]: 2.68^c hr
- M8 tmax, least-squares mean [3, 4]: 3.45^b hr
- M8 AUC(0-tlqc), least-squares mean [3, 5]: 7.58^g μg · hr/mL
- M8 AUC(0-∞), least-squares mean [3, 5]: 11.5^a μg · hr/mL
- M8 Cmax, least-squares mean [3, 5]: 1.28^g μg/mL
- M8 t1/2, least-squares mean [3, 5]: 3.90^a hr
- M8 tmax, least-squares mean [3, 5]: 5.01^a hr
- M8 AUC(0-tlqc), least-squares mean [3, 6]: 2.01^d μg · hr/mL
- M8 AUC(0-∞), least-squares mean [3, 6]: 3.66^f μg · hr/mL
- M8 Cmax, least-squares mean [3, 6]: 0.533^d μg/mL
- M8 t1/2, least-squares mean [3, 6]: 2.40^f hr
- M8 tmax, least-squares mean [3, 6]: 3.88^e hr
- M8 AUC(0-tlqc), least-squares mean [3, 7]: 3.46^a μg · hr/mL
- M8 AUC(0-∞), least-squares mean [3, 7]: 5.11^e μg · hr/mL
- M8 Cmax, least-squares mean [3, 7]: 0.693^a μg/mL
- M8 t1/2, least-squares mean [3, 7]: 2.96^e hr
- M8 tmax, least-squares mean [3, 7]: 4.49^a hr
- M8 Cmax, least-squares mean ([3]; M8 in plasma after 1250-mg nelfinavir oral dose, fasting (reference)): 0.228^a μg/mL
- M8 AUC/nelfinavir AUC ([3]; fed state): 15-21%
- M8 AUCinf/NFV AUCinf (%) ([3]; food intake 125 kcal/20% fat): 15.8%
- M8 AUCinf/NFV AUCinf (%) ([3]; food intake 500 kcal/20% fat): 15.3%
- M8 AUCinf/NFV AUCinf (%) ([3]; food intake 1000 kcal/50% fat): 20.8%
- M8 AUC(0-tlqc) ratio (100% × test/reference) [3, 8]: 1157%
- M8 AUC(0-∞) ratio (100% × test/reference) [3, 8]: 408%
- M8 Cmax ratio (100% × test/reference) [3, 8]: 562%
- M8 t1/2 ratio (100% × test/reference) [3, 8]: 145%
- M8 tmax ratio (100% × test/reference) [3, 8]: 145%
- M8 AUC(0-tlqc) ratio (100% × test/reference) [3, 9]: 343%
- M8 AUC(0-∞) ratio (100% × test/reference) [3, 9]: 130%
- M8 Cmax ratio (100% × test/reference) [3, 9]: 234%
- M8 t1/2 ratio (100% × test/reference) [3, 9]: 89.4%
- M8 tmax ratio (100% × test/reference) [3, 9]: 113%
- M8 AUC(0-tlqc) ratio (100% × test/reference) [3, 10]: 529%
- M8 AUC(0-∞) ratio (100% × test/reference) [3, 10]: 182%
- M8 Cmax ratio (100% × test/reference) [3, 10]: 304%
- M8 t1/2 ratio (100% × test/reference) [3, 10]: 110%
- M8 tmax ratio (100% × test/reference) [3, 10]: 130%
